Results reported in patent US20100190768A1, “NOVEL FUSED PYROLE DERIVATIVE” (Dainippon Sumitomo Pharma Co., Ltd., priority 2005, published 2010).

What was measured:
human GRα protein = biological target: T1, human GRα protein (Homo sapiens, UniProt P04150); experiment: Binding inhibitory assay (displacement of 3H-dexamethasone from the cytoplasm fraction of baculovirus-infected insect cells); settings: 100 nM test compound; 3H-Dex; NSB with 10 μM dexamethasone; read-out: Binding Inhibitory ratio (%) of 100 nM of test compound
T1 construct: made in house; host or cells: insect cells infected with baculovirus; cytoplasm fraction used
T1 sequence (P04150 1-777): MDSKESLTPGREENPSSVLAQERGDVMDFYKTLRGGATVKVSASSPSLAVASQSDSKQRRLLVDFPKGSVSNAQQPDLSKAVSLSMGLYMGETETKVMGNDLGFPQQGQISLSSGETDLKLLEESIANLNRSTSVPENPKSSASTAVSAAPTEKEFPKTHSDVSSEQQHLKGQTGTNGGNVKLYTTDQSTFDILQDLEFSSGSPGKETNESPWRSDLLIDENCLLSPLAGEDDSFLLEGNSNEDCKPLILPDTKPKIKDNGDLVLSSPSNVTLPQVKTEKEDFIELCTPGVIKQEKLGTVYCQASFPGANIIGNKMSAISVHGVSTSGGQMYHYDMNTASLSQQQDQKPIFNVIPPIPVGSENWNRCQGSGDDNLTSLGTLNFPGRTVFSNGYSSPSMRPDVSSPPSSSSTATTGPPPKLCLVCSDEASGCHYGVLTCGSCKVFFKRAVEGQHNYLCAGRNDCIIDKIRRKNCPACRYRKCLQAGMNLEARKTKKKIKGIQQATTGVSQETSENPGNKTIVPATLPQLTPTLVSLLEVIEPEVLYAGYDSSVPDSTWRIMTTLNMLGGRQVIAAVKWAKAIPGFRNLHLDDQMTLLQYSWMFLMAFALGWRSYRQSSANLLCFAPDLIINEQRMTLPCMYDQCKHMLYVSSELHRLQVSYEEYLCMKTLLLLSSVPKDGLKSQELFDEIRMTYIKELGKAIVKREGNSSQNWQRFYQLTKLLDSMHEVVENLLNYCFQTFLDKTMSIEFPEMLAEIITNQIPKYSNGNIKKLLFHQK
Description: Insect cells, which had been infected with baculovirus for expressing human GRα protein, were suspended in an approximately equal volume of a binding buffer (10 mM Tris-Cl, 1.5 mM EDTA, 10% glycerol, 5 mM DTT, 20 mM sodium molybdate, pH 7.6). The mixture was rapidly frozen with liquid nitrogen, and then melted at room temperature. This cycle was repeated totally twice in order to break the cell membrane. The mixture was ultracentrifuged under 100,000 g at 4° C. for one hour to give the supernatant, which was the cytoplasm fraction containing human GRα protein.
A polypropylene 96-well plate (manufactured by Costar Corporation, etc.) was placed on ice, and DMSO or a test compound (each 1 μl) was put into each well. A 10 nM ^3H-Dex solution (50 μl; tritiated dexamethasone; manufactured by Amersham) in the binding buffer, and a GR protein solution, i.e., a solution by diluting the above cytoplasm fraction with the binding buffer (50 μl) were added to each well, and the plate was lightly shaken with a plate mixer, and then left to stand at 4° C. for 16 to 20 hours (the final concentration of DMSO: 1%).
A 5% solution of dextran-coated active carbon (manufactured by Sigma) suspended in the binding buffer (50 μl) was put into each well, and the plate was lightly shaken with a plate mixer for 30 seconds. Then, the plate was centrifuged at 2500 rpm at 4° C. for 5 minutes, and the ^3H count in the supernatant (50 μl) was measured by a TopCount (manufactured by Perkin-Elmer Corporation). Each test compound was tested twice.
The binding activity was calculated as follows. The mean ^3H count in the presence of dexamethason (Dex) 10 μM was considered as NSB (non-specific binding), and the binding inhibitory ratio in each well was calculated by the following equation.
Binding Inhibitory Ratio (%)=100×{1−(cpm value of each well−NSB)/(mean cpm value of DMSO-well−NSB)}
(cpm means count per minute)
The mean binding inhibitory ratio of each well was calculated by the above equation to give a binding inhibitory ratio of each test compound.

H4-III-E cells = experiment: TAT (tyrosine aminotransferase) assay; type: cell-based; settings: for Agonistic activity of 10 μM test compound / activation at 10 µM: 10 μM test compound alone, relative to maximum Dex-induced TAT activity (100%); for Antagonistic activity of 10 μM test compound: 10 μM test compound together with 0.005 μM dexamethasone, inhibitory ratio against TAT activity increase by Dex; for activation at 10 µM: read-out: Agonistic activity of 10 μM test compound
Description: H4-III-E cells, which had been continuously cultured in α-MEM medium A (supplemented with 10% inactivated FBS, 50 μM 2-mercapto-ethanol), were suspended in α-MEM medium A or α-MEM medium B (supplemented with 10% inactivated FBS, 50 μM 2-mercapto-ethanol, but without phenol red), and the cell suspension was seeded to a 96-well plate in an amount of 2×10^4 cells/100 μl/well, and the cells were cultured overnight. The supernatant in the medium was removed, and a test compound (100 μl, diluted with α-MEM medium A or α-MEM medium B) was added, and the cells were further cultured overnight. In order to measure the agonistic activity, a test compound was added alone, while in order to measure the antagonistic activity, a test compound was added simultaneously together with 0.005 μM dexamethasone and evaluated the extent of the inhibitory effect of said test compound against the TAT activity-inducing activity by dexamethasone.
The culture supernatant in the plate was removed by suction, and a cell lysate (20 μL; 1% NP-40, 0.2% Triton X-100, 0.25% DOC, 0.1% SDS, 1 mM EGTA, 150 mM NaCl, Tris (pH7.4), Protease inhibitor cocktail [2.5 mg/ml aprotinin, 2.5 mg/ml leupeptin, 2.5 mg/ml soybean trypsin inhibitor]) was added, and further thereto was added a TAT reaction reagent (150 μL; 10 N KOH, 0.125 M KH2PO4, 0.5 M α-ketoglutarate, 5 mM Pyridoxal-5′ phosphate, L-tyrosine), and the mixture was reacted at 37° C. for 15 minutes. Further, a 10N KOH (20 μL) was added thereto, and the mixture was reacted at 37° C. for 30 minutes, and the absorbance at 331 nm was measured by a microplate reader (SPECTRA MAX 250).
From the mean absorbance in the wells to which a test compound was added, the mean absorbance in the wells to which a compound and a TAT reaction solution were not added was subtracted.
Agonistic activity (%)=100×[(absorbance of the drug-treated group)−(absorbance of the group without TAT reaction reagent)]/[(absorbance of Dex-treated group)−(absorbance of the group without TAT reaction reagent)]
On the other hand, the antagonistic activity was calculated as follows.
Antagonistic activity (%)=Inhibitory ratio (%) against TAT activity increase by Dex=100−100×[(absorbance of the drug-treated group)−(absorbance of the group without a drug)]/[(absorbance of Dex-treated group)−(absorbance of the group without a drug)]
With regard to the agonistic activity and the antagonistic activity, the results of 10% or more were expressed as O, while the results of less than 10% were expressed as X.

Row | SMILES | inhibition at 0.1 µM (human GRα protein) [%] | Agonistic activity of 10 μM test compound (H4-III-E cells) | Antagonistic activity of 10 μM test compound (H4-III-E cells) | activation at 10 µM (H4-III-E cells) [%]
1 | COc1ccc(Cn2cc(C(O)(CN3CCC(Oc4ccc(CC(=O)O)cc4OC)CC3)C(F)(F)F)c3ccc(C#N)cc32)cc1 (stereo not drawn) [Example 226, {4-[(1-{2-[6-Cyano-1-(4-methoxybenzyl)-1H-indol-3-yl]-3,3,3-trifluoro-2-hydroxypropyl}piperidin-4-yl)oxy]-3-methoxyphenyl}acetic acid] | 96 | ◯ | ◯ | 
2 | O=[N+]([O-])c1ccc2c(C(O)(CN3CCC4(CC3)CNc3ccccc3O4)C(F)(F)F)cn(Cc3ccccc3)c2c1 (stereo not drawn) [Example 128, 2-(1-Benzyl-6-nitro-1H-indol-3-yl)-3-(3,4-dihydro-1′H-spiro[1,4-benzoxazine-2,4′-piperidin]-1′-yl)-1,1,1-trifluoropropan-2-ol] | 64 |  |  | < 10
3 | O=[N+]([O-])c1ccc2c(C(O)(CN3CCN(S(=O)(=O)c4ccccc4)CC3)C(F)(F)F)cn(Cc3ccccc3)c2c1 (stereo not drawn) [Example 112, 2-(1-Benzyl-6-nitro-1H-indol-3-yl)-1,1,1-trifluoro-3-[4-(phenylsulfonyl)piperazin-1-yl]propan-2-ol] | 98 |  | ◯ | < 10
4 | O=C(N1CCOCC1)C(O)(c1cn(Cc2ccccc2)c2ccccc12)C(F)(F)F (stereo not drawn) [Example 152, 2-(1-Benzyl-1H-indol-3-yl)-1,1,1-trifluoro-3-morpholin-4-yl-3-oxopropan-2-ol] | 50 |  |  | < 10
5 | O=[N+]([O-])c1ccc2c(C(O)(CN3CCC(Oc4ccccc4Cl)CC3)C(F)(F)F)cn(Cc3ccccc3)c2c1 (stereo not drawn) [Example 119, 2-(1-Benzyl-6-nitro-1H-indol-3-yl)-3-[4-(2-chlorophenoxy)piperidin-1-yl]-1,1,1-trifluoropropan-2-ol] | 78 | ◯ | ◯ | 
6 | CCOC(=O)CCc1ccc(C(=O)C2CCN(CC(O)(c3cn(Cc4ccccc4)c4cc([N+](=O)[O-])ccc34)C(F)(F)F)CC2)cc1 (stereo not drawn) [Example 229, Ethyl 3-[4-({1-[2-(1-benzyl-6-nitro-1H-indol-3-yl)-3,3,3-trifluoro-2-hydroxypropyl]piperidin-4-yl}carbonyl)phenyl]propanoate] | 74 |  |  | 

Second part, led by results:

Row | inhibition at 0.1 µM (human GRα protein) [%] | SMILES | Agonistic activity of 10 μM test compound (H4-III-E cells) | Antagonistic activity of 10 μM test compound (H4-III-E cells) | activation at 10 µM (H4-III-E cells) [%]
7 | 101 | O=C(c1cccs1)N1CCN(CC(O)(c2cn(Cc3ccccc3)c3cc([N+](=O)[O-])ccc23)C(F)(F)F)CC1 (stereo not drawn) [Example 106, 2-(1-Benzyl-6-nitro-1H-indol-3-yl)-1,1,1-trifluoro-3-[4-(2-thienylcarbonyl)-piperazin-1-yl]propan-2-ol] | ◯ | ◯ | 
8 | 95 | O=[N+]([O-])c1ccc2c(C(O)(CN3CCCC(O)C3)C(F)(F)F)cn(Cc3ccccc3)c2c1 (stereo not drawn) [Example 165, 1-[2-(1-Benzyl-6-nitro-1H-indol-3-yl)-3,3,3-trifluoro-2-hydroxypropyl]piperidin-3-ol] | ◯ | ◯ | 
9 | 95 | COc1ccc(C(=O)C2CCN(CC(O)(c3cn(Cc4ccccc4)c4cc([N+](=O)[O-])ccc34)C(F)(F)F)CC2)cc1 (stereo not drawn) [Example 73, {1-[2-(1-Benzyl-6-nitro-1H-indol-3-yl)-3,3,3-trifluoro-2-hydroxypropyl]piperidin-4-yl}(4-methoxyphenyl)methanone] | ◯ | ◯ | 
10 | 50 | O=[N+]([O-])c1ccc2c(C(O)(CNCCc3ccccc3)C(F)(F)F)cn(Cc3ccccc3)c2c1 (stereo not drawn) [Example 157, 2-(1-Benzyl-6-nitro-1H-indol-3-yl)-1,1,1-trifluoro-3-[(2-phenylethyl)amino]-propan-2-ol] |  |  | 
